Measured values: ChEMBL document CHEMBL1201862, “PubChem BioAssay data set” (2004)
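96-well plates; 48 h exposure; 5 concentrations. Endpoints by linear interpolation between flanking doses. Not reached: highest tested concentration assigned. GI50 marks 50% less growth.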 Active and inactive are the calls of the source. Rule as the data show it: active = GI50 up to about 1.1 µM and inactive = higher.

How the values were obtained:
Experiment in all cases: growth of human tumour cells (NCI), 48 h
[1] = tested on: U-251
[2] = tested on: RPMI-8226
[3] = tested on: NCI-H226
[4] = tested on: PC-3
[5] = tested on: SNB-75
[6] = tested on: SF-295
[7] = tested on: ACHN
[8] = tested on: CCRF-CEM
[9] = tested on: 786-0
[10] = tested on: HT-29
[11] = tested on: DU-145
[12] = tested on: UO-31
[13] = tested on: UACC-62
[14] = tested on: HL-60
[15] = tested on: SF-268
[16] = tested on: A498
[17] = tested on: COLO 205
[18] = tested on: NCI-H460
[19] = tested on: MOLT-4
[20] = tested on: LOX IMVI
[21] = tested on: UACC-257
[22] = tested on: OVCAR-3
[23] = tested on: HCC 2998
[24] = tested on: MDA-MB-435
[25] = tested on: RXF 393
[26] = tested on: K562
[27] = tested on: NCI-H23
[28] = tested on: TK-10
[29] = tested on: OVCAR-8
[30] = tested on: CAKI-1
[31] = tested on: HCT-116
[32] = tested on: SNB-19
[33] = tested on: HCT-15
[34] = tested on: A549
[35] = tested on: OVCAR-4
[36] = tested on: EKVX
[37] = tested on: IGROV-1
[38] = tested on: HOP-62
[39] = tested on: NCI-H522
[40] = tested on: BT-549
[41] = tested on: HOP-92
[42] = tested on: NCI/ADR-RES
[43] = tested on: MCF7
[44] = tested on: SR
[45] = tested on: Hs-578T
[46] = tested on: KM12
[47] = tested on: MDA-N
[48] = tested on: M14
[49] = tested on: T47D
[50] = tested on: SK-MEL-28
[51] = tested on: Malme-3M
[52] = tested on: SN12C
[53] = tested on: OVCAR-5
[54] = tested on: SF-539
[55] = tested on: SW-620
[56] = tested on: SK-MEL-2
[57] = tested on: SK-MEL-5
[58] = tested on: MDA-MB-231

Measured: GI50

O=c1[nH]nc(-c2ccc([N+](=O)[O-])cc2)[nH]1
> 100 µM: [33]
inactive: [1] > 100 µM | [2] > 100 µM | [3] > 100 µM | [4] > 100 µM | [5] > 100 µM | [6] > 100 µM | [7] > 100 µM | [8] > 100 µM | [9] > 100 µM | [10] > 100 µM | [11] > 100 µM | [12] > 100 µM | [13] > 100 µM | [14] > 100 µM | [15] > 100 µM | [16] > 100 µM | [17] > 100 µM | [18] > 100 µM | [19] > 100 µM | [20] > 100 µM | [21] > 100 µM | [22] > 100 µM | [23] > 100 µM | [24] > 100 µM | [25] > 100 µM | [26] > 100 µM | [27] > 100 µM | [28] > 100 µM | [29] > 100 µM | [30] > 100 µM | [31] > 100 µM | [32] > 100 µM | [34] > 100 µM | [35] > 100 µM | [36] 45.4 µM | [37] > 100 µM | [38] > 100 µM | [39] > 100 µM | [40] 19.1 µM | [41] > 100 µM | [42] > 100 µM | [43] > 100 µM | [44] > 100 µM | [45] > 100 µM | [46] > 100 µM | [47] > 100 µM | [48] > 100 µM | [49] > 100 µM | [50] > 100 µM | [51] > 100 µM | [52] > 100 µM | [53] > 100 µM | [54] > 100 µM | [55] > 100 µM | [56] > 100 µM

CN1CCN(C(=S)N(C)C(=O)c2cccs2)CC1
inactive: [1] > 100 µM | [2] > 100 µM | [3] > 100 µM | [6] > 100 µM | [7] > 100 µM | [8] > 100 µM | [9] > 100 µM | [10] > 100 µM | [11] > 100 µM | [12] > 100 µM | [13] > 100 µM | [17] > 100 µM | [18] > 100 µM | [19] > 100 µM | [20] > 100 µM | [21] > 100 µM | [22] > 100 µM | [23] > 100 µM | [24] > 100 µM | [25] > 100 µM | [26] > 100 µM | [27] > 100 µM | [28] > 100 µM | [29] > 100 µM | [32] > 100 µM | [57] > 100 µM | [34] > 100 µM | [35] > 100 µM | [37] > 100 µM | [39] > 100 µM | [40] > 100 µM | [41] > 100 µM | [43] > 100 µM | [44] > 100 µM | [45] > 100 µM | [46] > 100 µM | [58] > 100 µM | [47] > 100 µM | [48] > 100 µM | [49] > 100 µM | [51] > 100 µM | [52] > 100 µM | [53] > 100 µM | [55] > 100 µM | [56] > 100 µM
> 100 µM: [33]

CC(NNC(=O)c1ccc[n+]([BH2-]C#N)c1)c1ccccc1 (stereo not given)
> 100 µM: [33]
inactive: [1] > 100 µM | [3] > 100 µM | [4] > 100 µM | [5] > 100 µM | [6] > 100 µM | [7] > 100 µM | [8] 78.7 µM | [9] > 100 µM | [10] > 100 µM | [11] > 100 µM | [12] > 100 µM | [13] > 100 µM | [14] 86.1 µM | [15] > 100 µM | [17] > 100 µM | [18] > 100 µM | [19] 38.3 µM | [20] > 100 µM | [21] > 100 µM | [22] > 100 µM | [23] > 100 µM | [24] > 100 µM | [25] > 100 µM | [26] > 100 µM | [27] > 100 µM | [28] > 100 µM | [29] > 100 µM | [30] > 100 µM | [31] > 100 µM | [32] > 100 µM | [57] > 100 µM | [35] > 100 µM | [36] > 100 µM | [37] > 100 µM | [38] > 100 µM | [39] > 100 µM | [40] > 100 µM | [41] > 100 µM | [42] > 100 µM | [43] > 100 µM | [46] > 100 µM | [58] > 100 µM | [47] > 100 µM | [48] > 100 µM | [49] > 100 µM | [50] > 100 µM | [51] > 100 µM | [52] > 100 µM | [53] > 100 µM | [54] > 100 µM | [55] > 100 µM | [56] > 100 µM
